# According to patent publication US8551964B2, “Hsp90 inhibitors with modified toxicity” (The Regents of the University of Colorado, priority 2007, dated 2013):
# How the values were obtained:
# [1] = cited from earlier work; for hepatotoxicity rank within the BA series: series GM, 17AAG, 17DMAG, 17AG, 17AEP-GA
# [2] = Interaction of BA Hsp90 inhibitors with reduced glutathione (HPLC, LC-MS, [3H] glutathione)
# Description: GM-glutathione conjugate formation was analyzed by HPLC and LC-MS. Briefly, 50 μM GM, 500 μM NADH, and 5 mM glutathione in the absence and presence of 11.8 μg rh-NQO1 and in the absence or presence of 2 μM ES936, were incubated in 50 mM potassium phosphate buffer, pH 7.4 (1 ml) at room temperature for 5 min. GM-glutathione conjugate formation was analyzed by HPLC at 270 nm (5 min).
# Reaction conditions were: 50 μM 17DMAG, 500 μM NADH, and 5 mM glutathione, in the absence and presence of 11.8 μg rhNQO1 and in the absence or presence of 2 μM ES936, were incubated in 50 mM potassium phosphate buffer, pH 7.4 (1 ml) at room temperature for 3 h. 17DMAG-glutathione conjugate formation was analyzed by HPLC at 270 nm (3 h).
# Reaction conditions were: 50 μM BA and 5 mM GSH were incubated in 50 mM potassium phosphate buffer, pH 7.4 (1 ml) at room temperature in the absence and presence of 11.8 μg of rhNQO1 and 500 μM NADH. BA-GSH conjugate formation was analyzed by HPLC at 270 nm and further confirmed by LC-MS. The amount of BA glutathione conjugate formation was quantified using [3H] glutathione.
# [3] = target: T1, purified human cytochrome P450 reductase (Homo sapiens, UniProt P16435); assay: Redox cycling catalyzed by purified human cytochrome P450 reductase; format: biochemical
# T1 sequence (P16435 1-677): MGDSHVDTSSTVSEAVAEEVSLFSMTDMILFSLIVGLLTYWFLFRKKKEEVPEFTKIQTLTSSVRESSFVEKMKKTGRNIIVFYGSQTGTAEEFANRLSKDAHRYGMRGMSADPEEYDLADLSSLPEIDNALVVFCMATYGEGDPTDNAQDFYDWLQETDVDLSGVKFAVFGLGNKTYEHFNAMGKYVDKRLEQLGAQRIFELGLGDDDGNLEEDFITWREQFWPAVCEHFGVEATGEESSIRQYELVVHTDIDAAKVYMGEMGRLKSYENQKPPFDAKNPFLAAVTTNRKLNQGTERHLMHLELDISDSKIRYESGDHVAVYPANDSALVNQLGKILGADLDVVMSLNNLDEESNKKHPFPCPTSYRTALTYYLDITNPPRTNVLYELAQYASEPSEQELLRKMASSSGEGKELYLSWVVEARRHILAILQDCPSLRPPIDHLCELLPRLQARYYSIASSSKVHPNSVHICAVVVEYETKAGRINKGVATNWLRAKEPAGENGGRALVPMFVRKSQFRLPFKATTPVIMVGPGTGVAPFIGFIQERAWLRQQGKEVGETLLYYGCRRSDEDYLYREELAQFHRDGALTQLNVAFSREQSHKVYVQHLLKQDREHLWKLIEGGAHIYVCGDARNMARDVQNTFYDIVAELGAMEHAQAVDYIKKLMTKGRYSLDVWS
# [4] = target: T2, NADPH-cytochrome P450 reductase (mouse liver microsomes) (Mus musculus, UniProt P37040); assay: One-electron redox cycling of BAs in mouse liver microsomes (oxygen consumption rate); format: in vitro ADME; settings: NADPH- or NADH-dependent, 50 μM BA
# T2 construct: Using human and mouse liver microsomes and either NADPH or NADH as cofactors; from tissue; host or cells: mouse liver microsomes
# T2 sequence (P37040 1-678): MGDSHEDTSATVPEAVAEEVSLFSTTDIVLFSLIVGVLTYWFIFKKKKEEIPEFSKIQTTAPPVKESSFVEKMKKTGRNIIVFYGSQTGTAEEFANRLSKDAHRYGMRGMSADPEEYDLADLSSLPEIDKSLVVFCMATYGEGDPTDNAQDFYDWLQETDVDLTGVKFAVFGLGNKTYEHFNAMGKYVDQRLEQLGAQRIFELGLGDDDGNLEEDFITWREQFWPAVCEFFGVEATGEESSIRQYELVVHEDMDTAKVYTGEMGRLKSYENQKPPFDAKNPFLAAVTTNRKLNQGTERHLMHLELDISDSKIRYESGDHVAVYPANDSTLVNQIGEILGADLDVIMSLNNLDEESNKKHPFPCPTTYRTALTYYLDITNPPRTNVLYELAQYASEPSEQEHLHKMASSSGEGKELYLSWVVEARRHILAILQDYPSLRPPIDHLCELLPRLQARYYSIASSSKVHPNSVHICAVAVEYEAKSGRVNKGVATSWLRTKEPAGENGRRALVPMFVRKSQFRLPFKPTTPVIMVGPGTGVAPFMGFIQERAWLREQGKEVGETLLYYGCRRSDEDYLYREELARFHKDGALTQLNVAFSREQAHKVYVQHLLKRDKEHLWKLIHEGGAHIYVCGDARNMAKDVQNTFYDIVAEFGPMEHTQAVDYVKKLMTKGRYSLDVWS
# Description: (§1) Using human and mouse liver microsomes and either NADPH or NADH as cofactors, the relative one-electron redox cycling rates of BAs mediated by NADPH-cytochrome P450 reductase were determined by measuring the rates of oxygen consumption. The rates of oxygen consumption and NAD(P)H oxidation were measured as indicators of the relative redox cycling rates of BAs. […] The oxygen consumption rate was measured using a Clark electrode (air tight) over 10 min.
# [5] = target: T3, NADPH-cytochrome P450 reductase (human liver microsomes) (Homo sapiens, UniProt P16435); assay: One-electron redox cycling of BAs in human liver microsomes (oxygen consumption rate); format: in vitro ADME; settings: NADPH- or NADH-dependent, 50 μM BA
# T3 construct: Using human and mouse liver microsomes and either NADPH or NADH as cofactors; from tissue; host or cells: human liver microsomes
# T3 sequence (P16435 1-677): T1 sequence (P16435 1-677)
# Description: as §1
# [6] = 50 μM BA, 5 mM reduced glutathione, pH 7.4, room temperature
compound,measurement,setting,value
"C=CCNC1=C2C[C@@H](C)C[C@H](OC)[C@H](O)[C@@H](C)/C=C(\C)[C@H](OC(N)=O)[C@@H](OC)/C=C\C=C(/C)C(=O)NC(=CC1=O)C2=O [17AAG, 17-(allylamino)-17-demethoxygeldanamycin]",hepatotoxicity rank within the BA series,[1],least hepatotoxic
same,"formation of glutathione conjugate (speed, in words)",[2]; [6],very slow
"CO[C@H]1/C=C\C=C(/C)C(=O)NC2=CC(=O)C(NCCN3CCCC3)=C(C[C@@H](C)C[C@H](OC)[C@H](O)[C@@H](C)/C=C(\C)[C@@H]1OC(N)=O)C2=O [17AEP-GA, 17-demethoxy-17-[[2-(pyrrolidin-1-yl)ethyl]amino]-geldanamycin]",relative rate of glutathione conjugate formation (rank order in the series),[2]; [6],GM>17DMAG>17AEP-GA>17AAG and 17AG
same,fraction conjugated with glutathione,"[2]; 50 μM BA, 5 mM reduced glutathione, pH 7.4, room temperature, within 10 h",about 90%
"CO[C@H]1/C=C\C=C(/C)C(=O)NC2=CC(=O)C(N)=C(C[C@@H](C)C[C@H](OC)[C@H](O)[C@@H](C)/C=C(\C)[C@@H]1OC(N)=O)C2=O [17AG, 17-(amino)-17-demethoxygeldanamycin]","formation of glutathione conjugate (speed, in words)",[2]; [6],very slow
same,relative rate of glutathione conjugate formation (rank order in the series),[2]; [6],GM>17DMAG>17AEP-GA>17AAG and 17AG
"CO[C@H]1/C=C\C=C(/C)C(=O)NC2=CC(=O)C(NCCN(C)C)=C(C[C@@H](C)C[C@H](OC)[C@H](O)[C@@H](C)/C=C(\C)[C@@H]1OC(N)=O)C2=O [17DMAG, 17-demthoxy-17-[[2-(dimethylamino)ethyl]amino]-geldanamycin]",17DMAGH2-SG conjugate detection,[2]; [6],not detected
same,relative rate of glutathione conjugate formation (rank order in the series),[2]; [6],GM>17DMAG>17AEP-GA>17AAG and 17AG
same,17DMAG-SG conjugate formed,"[2]; 50 μM BA, 5 mM reduced glutathione, pH 7.4, room temperature, within 4 h",approximately 47 μM
same,rate of redox cycling,[3],greatest rate
"COC1=C2C[C@@H](C)C[C@H](OC)[C@H](O)[C@@H](C)/C=C(\C)[C@H](OC(N)=O)[C@@H](OC)/C=C\C=C(/C)C(=O)NC(=CC1=O)C2=O [GM, geldanamycin]","relative rate of metabolism (one-electron redox cycling, oxygen consumption)",[4],relatively rapid rate
same,hepatotoxicity,"[1]; administration, Phase I clinical trials",unacceptable hepatotoxicity
same,hepatotoxicity rank within the BA series,[1],most hepatotoxic
same,relative rate of glutathione conjugate formation (rank order in the series),"[2]; 50 μM, pH 7.4",GM>17DMAG>17AEP-GA>17AAG and 17AG
same,GMH2-SG conjugate formed,"[2]; 5 min, 50 μM, pH 7.4",approximately 45 μM
same,"relative rate of metabolism (one-electron redox cycling, oxygen consumption)",[5],relatively rapid rate
